From patent publication US20250049026A1, “BIOCIDAL COMPOSITIONS WITH HYDRONIUM ION SOURCES FOR BIOFILM CONTROL” (ECOLAB USA INC., priority 2020, published 2025)
Marks after values point to notes of the source that are not given here.

System: Pseudomonas aeruginosa (ATCC 15442) biofilm
Assay: Efficacy against biofilm, CDC Biofilm Reactor and Single Tube Method (ASTM E3161-18, ASTM E2871-19)
Format: cell-based
Conditions: for Average Log Reduction: 10 min exposure
Method: The efficacy against biofilm was performed as described in the standard test methods ASTM E3161-18 (Standard Practice for Preparing a Pseudomonas aeruginosa or Staphylococcus aureus Biofilm using the CDC Biofilm Reactor) and ASTM E2871-19 (Standard Test Method for Determining Disinfectant Efficacy Against Biofilm Grown in the CDC Biofilm Reactor Using the Single Tube Method). A Pseudomonas aeruginosa (ATCC 15442) biofilm was the organism used for determination of composition efficacy against biofilm on hard non-porous surfaces. Biofilm for composition efficacy was generated as outlined in ASTM E3161-18. A 10 uL sample of a thawed frozen stock culture was used to inoculate 10 mL of sterile 100 mg/L Tryptic Soy Broth (TSB) which was then allowed to incubate for 24±2 hours at 35±2° C. Following growth, a 1 mL sample of this initial culture was used to inoculate a CDC Biofilm Reactor containing borosilicate glass coupons and 500 mL of sterile 300 mg/L TSB. The reactor system was allowed to incubate at room temperature (i.e. 21±2° C.) for 24±2 hours with a baffle rotational speed of 125±5 RPM under Batch Phase as directed in ASTM E3161-18. Following Batch Phase growth, Continuous Flow Phase growth was initiated by continuous pumping of 100 mg/L TSB into the reactor system at an appropriate flow rate to ensure the test organism residence time of 30±2 minutes. The reactor system was allowed to incubate at room temperature (i.e. 21±2° C.) for 24±2 hours with a baffle rotational speed of 125±5 RPM under Continuous Flow Phase as directed in ASTM E3161-18. Following completion of the growth, biofilm test carriers were removed from the CDC Biofilm Reactor, rinsed in sterile buffer to remove any non-adhered cells and individual carriers were placed into sterile 50 mL conical tubes for composition treatment. Determination of compositional efficacy against Pseudomonas aeruginosa biofilm was performed as outlined in ASTM E2871-19. A 4 mL sample of each composition (or sterile buffer for control carriers) was pipetted into each corresponding tube containing a test carrier. Triplicate test carriers were analyzed per composition or control. Test and control carriers were allowed to expose for 10 minutes at room temperature (i.e. 21±2° C.). Following exposure, each carrier was appropriately neutralized with 36 mL of Neutralizing Broth. Neutralized carriers were vortex mixed and sonicated to remove/disaggregate the biofilm from the carrier surface as outlined in ASTM E2871-19. Disaggregated biofilm samples were serially diluted in sterile buffer and spread plated onto appropriate agar for determination of plate counts. Log reductions for each composition were determined by comparing the calculated average Log10 from the set of recovered control carriers to the calculated average Log10 from each set of recovered composition carriers. In addition to carrier control determination, an appropriate Neutralization Confirmation Control was performed for each composition to ensure that the Neutralizing Broth chosen appropriately neutralized the test solution.
The various combinations of biocides and hydronium ion (all from sulfuric acid) were evaluated at the use concentration (ppm biocide) pH and moles of hydronium in the use concentration as set forth in Table 2.

[1] = active 100 ppm, pH 2.15, hydronium ion 0.0071 M (sulfuric acid)
[2] = active 100 ppm, pH 2.50, hydronium ion 0.0032 M (sulfuric acid)
[3] = active 100 ppm, pH 3.00, hydronium ion 0.001 M (sulfuric acid)

Compound: CCCCCCCC(=O)O [Octanoic acid]
- Average Log Reduction [1]: 4.28 log
- Average Log Reduction [2]: 7.59 log
- Average Log Reduction [3]: 2.19 log
- Average Log Reduction (active 100 ppm, pH 6.43, hydronium ion 0.0000 M): 2.07 log
- Average Log Reduction (active 200 ppm, pH 6.43, hydronium ion 0.0000 M): 2.15 log
- Average Log Reduction (active 300 ppm, pH 6.43, hydronium ion 0.0000 M): 2.15 log
- Average Log Reduction (active 400 ppm, pH 6.43, hydronium ion 0.0000 M): 2.15 log

Compound: CC(=O)OO [POAA, Peroxyacetic acid]
- micro efficacy (220 ppm, without the hydronium ion): fails to provide sufficient micro efficacy
- Average Log Reduction (active 110 ppm, pH 2.29, hydronium ion 0.0051 M (sulfuric acid)): 5.94 log
- Average Log Reduction (active 220 ppm, pH 2.00, hydronium ion 0.01 M (sulfuric acid)): 4.45* log
- Average Log Reduction (active 220 ppm, pH 2.29, hydronium ion 0.0051 M (sulfuric acid)): 8.70 log
- Average Log Reduction (active 220 ppm, pH 2.30, hydronium ion 0.0050 M (sulfuric acid)): 2.42 log
- Average Log Reduction (active 220 ppm, pH 2.45, hydronium ion 0.0035 M (sulfuric acid)): 2.11 log
- Average Log Reduction (active 220 ppm, pH 2.50, hydronium ion 0.0032 M (sulfuric acid)): 2.15 log
- Average Log Reduction (active 220 ppm, pH 2.98, hydronium ion 0.001 M (sulfuric acid)): 2.15 log
- Average Log Reduction (active 220 ppm, pH 3.46, hydronium ion 0.00035 M (sulfuric acid)): 2.15 log
- Average Log Reduction (active 220 ppm, pH 4.20, hydronium ion 0.000063 M [No hydronium ion source], room temperature): 2.15 log
- Average Log Reduction (active 320 ppm, pH 3.45, hydronium ion 0.00035 M (sulfuric acid)): 2.41 log
- Average Log Reduction (active 420 ppm, pH 3.46, hydronium ion 0.00035 M (sulfuric acid)): 2.41 log
- Average Log Reduction (active 520 ppm, pH 3.44, hydronium ion 0.00035 M (sulfuric acid)): 2.41 log

Compound: CCCCCCCC(=O)OO [POOA, Peroxyoctanoic acid]
- Average Log Reduction [1]: 8.43 log
- Average Log Reduction [2]: 7.24 log
- Average Log Reduction [3]: 2.19 log
- Average Log Reduction (active 100 ppm, pH 5.45, hydronium ion 0.0000 M): 1.95 log

Compound: Linear alkylbenzene sulfonate [LAS]
- Average Log Reduction (active 1000 ppm, pH 2.15, hydronium ion 0.0071 M (sulfuric acid)): 5.74 log
- Average Log Reduction (active 1000 ppm, pH 3.02, hydronium ion 0.00095 M (sulfuric acid)): 2.19 log
- Average Log Reduction (active 1000 ppm, pH 7.48, hydronium ion 0.0000 M): 2.07 log
- Average Log Reduction (active 2000 ppm, pH 7.48, hydronium ion 0.0000 M): 2.41 log
- Average Log Reduction (active 3000 ppm, pH 7.46, hydronium ion 0.0000 M): 2.41 log
- Average Log Reduction (active 4000 ppm, pH 7.48, hydronium ion 0.0000 M): 2.41 log
